Assay results published in PMC10254530, “Design and Synthesis of Brefeldin A-Isothiocyanate Derivatives with Selectivity and Their Potential for Cervical Cancer Therapy” (Molecules, 2023).
Counter-ions that a name gives are not always drawn.

Key:
[1] = system: HepG2 cells; experiment: CCK-8 antiproliferative assay, HepG2; assay type: cell-based; conditions: Homo sapiens, HepG2; CCK-8, 48 h, mean ± SD of three experiments; read-out: IC50 HepG2
Experimental: (§1) All cells were cultured in Dulbecco’s Modified Eagle’s Medium (DMEM) (Burlington, MA, USA) or Roswell Park Memorial Institute (RPMI)-1640 medium containing 10% fetal bovine serum and 1% penicillin/streptomycin in an incubator at 37 °C and 5% CO2. […] Cell suspension with a concentration of 8 × 10^4 cells/mL was prepared after cell counting. 100 μL cell suspension was added to each well of the 96-well plate and then placed in an incubator overnight. Most of the derivatives were configured into 80 mM, 20 mM or 4 mM stock solution in DMSO, and the stock solution concentration of BFA and paclitaxel was 0.4 mM. […] The medium in each well was discarded, and 100 μL of gradient diluted derivative solution was added (the control group was added with serum-free medium).

[2] = system: MDA-MB-231 cells; experiment: CCK-8 antiproliferative assay, MDA-MB-231; assay type: cell-based; conditions: Homo sapiens, MDA-MB-231; CCK-8, 48 h, mean ± SD of three experiments; read-out: IC50 MDA-MB-231
Experimental: as §1

[3] = system: A375 cells; experiment: CCK-8 antiproliferative assay, A375; assay type: cell-based; conditions: Homo sapiens, A-375; CCK-8, 48 h, mean ± SD of three experiments; read-out: IC50 A375
Experimental: as §1

[4] = system: A549 cells; experiment: CCK-8 antiproliferative assay, A549; assay type: cell-based; conditions: Homo sapiens, A549; CCK-8, 48 h, mean ± SD of three experiments; read-out: IC50 A549
Experimental: as §1

[5] = system: HeLa cells; experiment: CCK-8 antiproliferative assay, HeLa; assay type: cell-based, human; conditions: for IC50: Homo sapiens, HeLa, CCK-8, 48 h, mean ± SD of three experiments, read-out: IC50 HeLa; for SIHeLa, selectivity index between L-02 and HeLa: SI = IC50(L-02)/IC50(HeLa)
Experimental: as §1

[6] = system: L-02 cells; experiment: CCK-8 cytotoxicity assay, normal liver L-02; assay type: cell-based; conditions: Homo sapiens, L02; CCK-8, 48 h, normal liver cells, mean ± SD of three experiments; read-out: IC50 L-02
Experimental: as §1

Compound	IC50 [1]	IC50 [2]	IC50 [3]	IC50 [4]	IC50 [5]	SIHeLa, selectivity index between L-02 and HeLa [5]	IC50 [6]
C[C@H]1CCC/C=C/[C@@H]2C[C@H](O)C[C@H]2[C@H](OC(=O)/C=C\C(=O)OCC#CCOC(=O)c2ccc(N=C=S)cc2)/C=C/C(=O)O1 [Compound 9i, (1R,2E,6S,10E,11aS,13S,14aR)-13-Hydroxy-6-methyl-4-oxo-1,6,7,8,9,11a,12,13,14,14a-decahydro-4H-cyclopenta[f][1]oxacyclotridecin-1-yl (4-((4-isothiocyanatobenzoyl)oxy)but-2-yn-1-yl) maleate]	11.9 ± 0.32 µM	10 ± 0.26 µM	9.1 ± 0.46 µM	10.3 ± 0.35 µM	6590 ± 750 nM	4.27	28.14 ± 0.14 µM
C[C@H]1CCC/C=C/[C@@H]2C[C@H](O)C[C@H]2[C@H](O)/C=C/C(=O)O1 [BFA, Brefeldin A]	0.12 ± 0.01 µM	0.054 ± 0.001 µM	0.039 ± 0.001 µM	0.056 ± 0.002 µM	44 ± 4 nM	2.14	0.094 ± 0.004 µM
C[C@H]1CCC/C=C/[C@@H]2C[C@H](O)C[C@H]2[C@H](OC(=O)/C=C\C(=O)OCCOCCOC(=O)c2ccc(N=C=S)cc2)/C=C/C(=O)O1 [Compound 9j, (1R,2E,6S,10E,11aS,13S,14aR)-13-Hydroxy-6-methyl-4-oxo-1,6,7,8,9,11a,12,13,14,14a-decahydro-4H-cyclopenta[f][1]oxacyclotridecin-1-yl (2-(2-((4-isothiocyanatobenzoyl)oxy)ethoxy)ethyl) maleate]	3.69 ± 0.14 µM	2.27 ± 0.03 µM	1.5 ± 0.05 µM	4.61 ± 0.12 µM	1710 ± 20 nM	6.29	10.8 ± 0.57 µM
C[C@H]1CCC/C=C/[C@@H]2C[C@H](O)C[C@H]2[C@H](OC(=O)/C=C\C(=O)OCCOC(=O)c2ccc(N=C=S)cc2)/C=C/C(=O)O1 [Compound 9g, (1R,2E,6S,10E,11aS,13S,14aR)-13-Hydroxy-6-methyl-4-oxo-1,6,7,8,9,11a,12,13,14,14a-decahydro-4H-cyclopenta[f][1]oxacyclotridecin-1-yl (2-((4-isothiocyanatobenzoyl)oxy)ethyl) maleate]	12.8 ± 0.15 µM	7.51 ± 0.07 µM	11.9 ± 0.54 µM	10.4 ± 0.59 µM	3630 ± 230 nM	5.75	20.9 ± 0.49 µM
C[C@H]1CCC/C=C/[C@@H]2C[C@H](OC(=O)/C=C\C(=O)OCCOC(=O)c3ccc(N=C=S)cc3)C[C@H]2[C@H](OC(=O)/C=C\C(=O)OCCOC(=O)c2ccc(N=C=S)cc2)/C=C/C(=O)O1 [Compound 8g, Bis(2-((4-isothiocyanatobenzoyl)oxy)ethyl) O,O’-((1R,2E,6S,10E,11aS,13S,14aR)-6-methyl-4-oxo-1,6,7,8,9,11a,12,13,14,14a-decahydro-4H-cyclopenta[f][1]oxacyclotridecine-1,13-diyl) dimaleate]	> 40 µM	> 40 µM	> 40 µM	> 40 µM	9740 ± 370 nM	>8.21	> 80 µM
CC(=O)O[C@H]1C(=O)[C@@]2(C)[C@H]([C@H](OC(=O)c3ccccc3)[C@]3(O)C[C@H](OC(=O)[C@H](O)[C@@H](NC(=O)c4ccccc4)c4ccccc4)C(C)=C1C3(C)C)[C@]1(OC(C)=O)CO[C@@H]1C[C@@H]2O [paclitaxel, reference compound]	0.55 ± 0.03 µM	0.33 ± 0.03 µM	0.059 ± 0.001 µM	0.014 ± 0.002 µM	34 ± 2 nM	3.82	0.13 µM
C[C@H]1CCC/C=C/[C@@H]2C[C@H](O)C[C@H]2[C@H](OC(=O)CCC(=O)OCCOC(=O)c2ccc(N=C=S)cc2)/C=C/C(=O)O1 [Compound 9a, (1R,2E,6S,10E,11aS,13S,14aR)-13-Hydroxy-6-methyl-4-oxo-1,6,7,8,9,11a,12,13,14,14a-decahydro-4H-cyclopenta[f][1]oxacyclotridecin-1-yl (2-((4-isothiocyanatobenzoyl)oxy)ethyl) succinate]	5.93 ± 0.03 µM	8.04 ± 0.01 µM	2.07 ± 0.09 µM	8.29 ± 0.1 µM	2690 ± 300 nM	5.75	15.5 ± 1.22 µM
C[C@H]1CCC/C=C/[C@@H]2C[C@H](O)C[C@H]2[C@H](OC(=O)CCC(=O)Oc2ccc(OC(=O)c3ccc(N=C=S)cc3)cc2)/C=C/C(=O)O1 [Compound 9f, (1R,2E,6S,10E,11aS,13S,14aR)-13-Hydroxy-6-methyl-4-oxo-1,6,7,8,9,11a,12,13,14,14a-decahydro-4H-cyclopenta[f][1]oxacyclotridecin-1-yl (4-((4-isothiocyanatobenzoyl)oxy)phenyl) succinate]	27.7 ± 0.47 µM	32.1 ± 1.03 µM	21.3 ± 0.33 µM	16.18 ± 0.06 µM	13100 ± 450 nM	1.91	25.1 ± 0.82 µM
C[C@H]1CCC/C=C/[C@@H]2C[C@H](O)C[C@H]2[C@H](OC(=O)/C=C\C(=O)OCCCCOC(=O)c2ccc(N=C=S)cc2)/C=C/C(=O)O1 [Compound 9h, (1R,2E,6S,10E,11aS,13S,14aR)-13-Hydroxy-6-methyl-4-oxo-1,6,7,8,9,11a,12,13,14,14a-decahydro-4H-cyclopenta[f][1]oxacyclotridecin-1-yl (4-((4-isothiocyanatobenzoyl)oxy)butyl) maleate]	13.27 ± 0.1 µM	5.71 ± 0.2 µM	11.2 ± 0.29 µM	8.54 ± 0.26 µM	9680 ± 240 nM	2.87	27.8 ± 1.39 µM
C[C@H]1CCC/C=C/[C@@H]2C[C@H](OC(=O)/C=C\C(=O)OCC#CCOC(=O)c3ccc(N=C=S)cc3)C[C@H]2[C@H](OC(=O)/C=C\C(=O)OCC#CCOC(=O)c2ccc(N=C=S)cc2)/C=C/C(=O)O1 [Compound 8i, Bis(4-((4-isothiocyanatobenzoyl)oxy)but-2-yn-1-yl) O,O’-((1R,2E,6S,10E,11aS,13S,14aR)-6-methyl-4-oxo-1,6,7,8,9,11a,12,13,14,14a-decahydro-4H-cyclopenta[f][1]oxacyclotridecine-1,13-diyl) dimaleate]	> 40 µM	> 40 µM	> 40 µM	> 40 µM	> 40000 nM	–	> 80 µM
C[C@H]1CCC/C=C/[C@@H]2C[C@H](O)C[C@H]2[C@H](OC(=O)CCC(=O)OCC#CCOC(=O)c2ccc(N=C=S)cc2)/C=C/C(=O)O1 [Compound 9c, (1R,2E,6S,10E,11aS,13S,14aR)-13-Hydroxy-6-methyl-4-oxo-1,6,7,8,9,11a,12,13,14,14a-decahydro-4H-cyclopenta[f][1]oxacyclotridecin-1-yl (4-((4-isothiocyanatobenzoyl)oxy)but-2-yn-1-yl) succinate]	8.84 ± 0.28 µM	9.77 ± 0.22 µM	10.4 ± 0.16 µM	13.19 ± 0.03 µM	3630 ± 150 nM	4.79	17.4 ± 0.44 µM
C[C@H]1CCC/C=C/[C@@H]2C[C@H](O)C[C@H]2[C@H](OC(=O)/C=C\C(=O)OCCCCCCOC(=O)c2ccc(N=C=S)cc2)/C=C/C(=O)O1 [Compound 9k, (1R,2E,6S,10E,11aS,13S,14aR)-13-Hydroxy-6-methyl-4-oxo-1,6,7,8,9,11a,12,13,14,14a-decahydro-4H-cyclopenta[f][1]oxacyclotridecin-1-yl (6-((4-isothiocyanatobenzoyl)oxy)hexyl) maleate]	3.28 ± 0.27 µM	2.61 ± 0.08 µM	7.27 ± 0.57 µM	8.34 ± 0.24 µM	2390 ± 100 nM	–	23.9 ± 1.23 µM
C[C@H]1CCC/C=C/[C@@H]2C[C@H](O)C[C@H]2[C@H](OC(=O)CCC(=O)OCCOCCOC(=O)c2ccc(N=C=S)cc2)/C=C/C(=O)O1 [Compound 9d, (1R,2E,6S,10E,11aS,13S,14aR)-13-Hydroxy-6-methyl-4-oxo-1,6,7,8,9,11a,12,13,14,14a-decahydro-4H-cyclopenta[f][1]oxacyclotridecin-1-yl (2-(2-((4-isothiocyanatobenzoyl)oxy)ethoxy)ethyl) succinate]	2.34 ± 0.31 µM	2.05 ± 0.27 µM	2.93 ± 0.12 µM	2.85 ± 0.1 µM	990 ± 20 nM	–	9.18 ± 0.13 µM
C[C@H]1CCC/C=C/[C@@H]2C[C@H](O)C[C@H]2[C@H](OC(=O)CCC(=O)OCCCCOC(=O)c2ccc(N=C=S)cc2)/C=C/C(=O)O1 [Compound 9b, (1R,2E,6S,10E,11aS,13S,14aR)-13-Hydroxy-6-methyl-4-oxo-1,6,7,8,9,11a,12,13,14,14a-decahydro-4H-cyclopenta[f][1]oxacyclotridecin-1-yl (4-((4-isothiocyanatobenzoyl)oxy)butyl) succinate]	6.54 ± 0.18 µM	2.23 ± 0.04 µM	2.79 ± 0.25 µM	2.84 ± 0.02 µM	2280 ± 40 nM	4.63	10.6 ± 0.6 µM
